According to ChEMBL document CHEMBL2034824, “Pyridyl-2,5-diketopiperazines as potent, selective, and orally bioavailable oxytocin antagonists: synthesis, pharmacokinetics, and in vivo potency” (J Med Chem, 2012):
pKi: −log10 of the molar value. ≈ marks a conversion by molar mass, not a printed value.

Key:
[1] = tested on: Liver microsomes; test: Intrinsic clearance in human liver microsomes; format: ADME, Microsome
[2] = tested on: Liver; test: Intrinsic clearance in dog liver microsomes; format: ADME, Canis lupus familiaris, Microsome
[3] = Intrinsic clearance in cynomolgus monkey liver microsomes; format: ADME, Macaca fascicularis, Microsome
[4] = AUC in rat at 5 mg/kg, po; format: ADME, organism-based; set-up: dose 5 mg/kg, route oral; conditions: plasma
[5] = tested on: Liver microsomes; test: Intrinsic clearance in rat liver microsomes; format: ADME, Microsome
[6] = Oral bioavailability in rat at 5 mg/kg; format: ADME, organism-based; conditions: in vivo
[7] = biological target: T1, Oxytocin receptor (Homo sapiens, UniProt P30559); test: Displacement of [3H]oxytocin from human oxytocin receptor
T1 sequence (P30559 whole entry): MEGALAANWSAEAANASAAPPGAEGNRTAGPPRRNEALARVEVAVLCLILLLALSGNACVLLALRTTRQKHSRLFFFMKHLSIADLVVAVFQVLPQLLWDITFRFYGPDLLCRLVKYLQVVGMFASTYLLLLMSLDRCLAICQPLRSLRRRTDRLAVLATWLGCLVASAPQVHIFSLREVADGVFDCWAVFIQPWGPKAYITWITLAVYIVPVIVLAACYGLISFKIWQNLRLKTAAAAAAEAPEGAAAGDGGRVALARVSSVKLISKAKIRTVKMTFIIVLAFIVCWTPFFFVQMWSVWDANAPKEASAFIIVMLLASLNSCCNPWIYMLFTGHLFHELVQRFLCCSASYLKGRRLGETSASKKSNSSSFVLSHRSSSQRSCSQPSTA

[8] = Clearance in rat at 5 mg/kg; format: ADME, organism-based; set-up: dose 5 mg/kg; conditions: in vivo
[9] = Clearance in dog at 0.6 mg/kg; format: ADME, organism-based, Canis lupus familiaris; set-up: dose 0.6 mg/kg; conditions: in vivo
[10] = AUC in dog at 0.6 mg/kg, po; format: ADME, organism-based, Canis lupus familiaris; set-up: dose 0.6 mg/kg, route oral; conditions: plasma
[11] = Oral bioavailability in dog at 0.6 mg/kg; format: ADME, organism-based, Canis lupus familiaris; conditions: in vivo
[12] = Aqueous solubility of the compound by HPLC analysis; format: physicochemical
[13] = biological target: serum albumin (Homo sapiens, UniProt P02768); test: Binding affinity to human serum albumin; format: ADME; conditions: read-out: PB (converted)
[14] = Lipophilicity, log D of the compound by HPLC analysis; format: physicochemical
[15] = biological target: serum albumin (Rattus norvegicus, UniProt P02770); test: Binding affinity to rat serum albumin; format: ADME; conditions: read-out: PB (converted)
serum albumin (Rattus norvegicus, UniProt P02770), sequence (P02770 whole entry): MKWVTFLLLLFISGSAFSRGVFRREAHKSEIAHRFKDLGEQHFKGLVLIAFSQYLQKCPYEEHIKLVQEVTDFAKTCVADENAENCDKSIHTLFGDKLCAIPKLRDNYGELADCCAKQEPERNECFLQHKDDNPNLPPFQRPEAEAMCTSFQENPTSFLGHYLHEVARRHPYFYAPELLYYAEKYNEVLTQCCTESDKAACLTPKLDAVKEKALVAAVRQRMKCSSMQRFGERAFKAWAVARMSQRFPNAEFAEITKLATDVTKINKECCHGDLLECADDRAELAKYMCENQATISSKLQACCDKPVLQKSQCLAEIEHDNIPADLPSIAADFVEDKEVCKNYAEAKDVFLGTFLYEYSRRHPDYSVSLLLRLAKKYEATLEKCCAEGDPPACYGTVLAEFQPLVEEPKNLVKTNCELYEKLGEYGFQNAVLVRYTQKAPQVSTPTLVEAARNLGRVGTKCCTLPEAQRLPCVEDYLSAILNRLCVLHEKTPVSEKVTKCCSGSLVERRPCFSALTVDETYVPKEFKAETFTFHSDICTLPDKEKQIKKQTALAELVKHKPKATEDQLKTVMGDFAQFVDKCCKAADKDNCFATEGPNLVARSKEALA

serum albumin (Homo sapiens, UniProt P02768), sequence (P02768 whole entry): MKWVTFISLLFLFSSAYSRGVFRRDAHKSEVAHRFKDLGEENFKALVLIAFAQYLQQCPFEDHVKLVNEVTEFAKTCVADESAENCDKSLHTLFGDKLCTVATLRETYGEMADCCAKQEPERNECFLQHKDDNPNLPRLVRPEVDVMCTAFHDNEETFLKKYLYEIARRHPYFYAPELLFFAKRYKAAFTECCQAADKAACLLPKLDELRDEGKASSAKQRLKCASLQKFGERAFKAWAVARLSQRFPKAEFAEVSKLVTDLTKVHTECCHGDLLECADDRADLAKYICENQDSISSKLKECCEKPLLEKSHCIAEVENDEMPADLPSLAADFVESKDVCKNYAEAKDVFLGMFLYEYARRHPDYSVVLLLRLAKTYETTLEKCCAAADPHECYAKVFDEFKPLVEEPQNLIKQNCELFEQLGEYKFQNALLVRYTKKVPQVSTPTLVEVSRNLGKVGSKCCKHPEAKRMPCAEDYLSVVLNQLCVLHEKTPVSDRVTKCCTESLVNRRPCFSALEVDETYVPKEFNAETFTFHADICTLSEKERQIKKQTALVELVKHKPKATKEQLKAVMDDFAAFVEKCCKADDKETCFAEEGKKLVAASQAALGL

| SMILES | CLH [1] [mL/min/g] | CLH [2] [mL/min/g] | CLH [3] [mL/min/g] | AUC [4] [ng·h/mL] | CLH [5] [mL/min/g] | bioavailability [6] [%] | pKi [7] | clearance [8] [mL/min/kg] | clearance [9] [mL/min/kg] | AUC [10] [ng·h/mL] | bioavailability [11] [%] | solubility [12] [µg/mL] | fraction unbound [13] | logD [14] | fraction unbound [15] |
| --- | --- | --- | --- | --- | --- | --- | --- | --- | --- | --- | --- | --- | --- | --- | --- |
| Cc1ccc([C@H](C(=O)N2CCOCC2)N2C(=O)[C@@H](C3Cc4ccccc4C3)NC(=O)[C@H]2CC(C)(C)C)cn1 | 4 | 9 | 21 | 770 | 1 | 18 | 10.10 | 20 | 24 | 21 | 5 | 213 (≈ 411 µM) |  |  |  |
| CC[C@H](C)[C@@H]1C(=O)N[C@H](C2Cc3ccccc3C2)C(=O)N1[C@@H](C(=O)N1CCOCC1)c1cc(C)cnc1C |  |  |  |  |  |  | 9.10 |  |  |  |  |  |  |  |  |
| CC[C@H](C)[C@@H]1C(=O)N[C@H](C2Cc3ccccc3C2)C(=O)N1[C@@H](C(=O)N(C)C)c1ccc(C)nc1 | 2 | 1 | 9 | 2270 | 1 | 62 | 9.70 | 19 | 10 | 347 | 39 | > 254 |  |  |  |
| CC[C@H](C)[C@@H]1C(=O)N[C@H](C2Cc3ccccc3C2)C(=O)N1[C@@H](C(=O)N1CCOCC1)c1ccc(C)nc1 | 3 | 2 | 6 | 1450 | 1 | 54 | 9.80 | 27 | 23 | 55 | 14 | > 268 |  |  |  |
| CC[C@H](C)[C@@H]1C(=O)N[C@H](C2Cc3ccccc3C2)C(=O)N1[C@@H](C(=O)NC)c1cc(C)cnc1C | 3 | 3 | 5 |  | 1 |  | 8.90 |  |  |  |  |  |  |  |  |
| CC[C@@H](C)[C@@H]1C(=O)N[C@H](C2Cc3ccccc3C2)C(=O)N1[C@@H](C(=O)N(C)C)c1ccc(C)nc1 | 3 | 1 | 11 | 3360 | 1 | 82 | 9.00 | 23 |  |  |  | > 237 |  |  |  |
| CC[C@H](C)[C@@H]1C(=O)N[C@H](C2Cc3ccccc3C2)C(=O)N1[C@@H](C(=O)N(C)C)c1cc(C)cnc1C | 5 | 2 | 13 | 1370 | 1 |  | 9.10 |  |  |  |  |  |  |  |  |
| CC(C)C[C@@H]1C(=O)N[C@H](C2Cc3ccccc3C2)C(=O)N1[C@@H](C(=O)N(C)C)c1ccc(=O)[nH]c1 |  |  |  |  |  |  | 8.50 |  |  |  |  | > 240 | 0.39 | 1.3 | 0.63 |
| Cc1ccc([C@H](C(=O)N2CCOCC2)N2C(=O)[C@@H](C3Cc4ccccc4C3)NC(=O)[C@H]2CC2CC2)cn1 |  |  |  |  |  |  | 8.30 |  |  |  |  | > 258 |  |  |  |
| Cc1ccc([C@H](C(=O)N(C)C)N2C(=O)[C@@H](C3Cc4ccccc4C3)NC(=O)[C@H]2CC2CC2)cn1 |  |  |  |  |  |  | 8.30 |  |  |  |  | 230 (≈ 499 µM) |  |  |  |
| CC[C@H](C)[C@@H]1C(=O)N[C@H](C2Cc3ccccc3C2)C(=O)N1[C@@H](C(=O)NC)c1ccc(C)nc1C | 5 | 5 | 6 | 1730 | 1 | 51 | 9.40 | 25 | 22 | 58 | 13 |  |  |  |  |
| CC[C@@H](C)[C@@H]1C(=O)N[C@H](C2Cc3ccccc3C2)C(=O)N1[C@@H](C(=O)N1CCOCC1)c1ccc(C)nc1 | 4 | 2 | 8 | 1590 | 1 | 44 | 9.30 | 39 | 20 | 138 | 31 | > 280 |  |  |  |
| CC[C@H](C)[C@@H]1C(=O)N[C@H](C2Cc3ccccc3C2)C(=O)N1[C@@H](C(=O)N(C)C)c1ccc(C)[n+]([O-])c1 | 1 |  | 1 | 24 | 1 | < 1 | 9.00 | 28 | 14 | 73 | 11 | > 242 |  |  |  |

The next molecules have a higher pKi [7] than those just listed; values first:

| CLH [1] [mL/min/g] | CLH [2] [mL/min/g] | CLH [3] [mL/min/g] | AUC [4] [ng·h/mL] | CLH [5] [mL/min/g] | bioavailability [6] [%] | pKi [7] | clearance [8] [mL/min/kg] | clearance [9] [mL/min/kg] | AUC [10] [ng·h/mL] | bioavailability [11] [%] | solubility [12] [µg/mL] | fraction unbound [13] | logD [14] | fraction unbound [15] | SMILES |
| --- | --- | --- | --- | --- | --- | --- | --- | --- | --- | --- | --- | --- | --- | --- | --- |
| 7 | 4 | 20 | 407 | 1 | 11 | 10.20 | 23 |  |  |  |  |  |  |  | CC[C@H](C)[C@@H]1C(=O)N[C@H](C2Cc3ccccc3C2)C(=O)N1[C@@H](C(=O)NC)c1cnc(C)cc1C |
| 6 | 1 | 8 | 618 | 3 |  | 10.20 |  |  |  |  | > 242 |  |  |  | Cc1ccc([C@H](C(=O)N(C)C)N2C(=O)[C@@H](C3Cc4ccccc4C3)NC(=O)[C@H]2CC(C)(C)C)cn1 |
|  |  | 31 | 1240 | 2 |  | 10.30 |  |  |  |  |  |  |  |  | CCC(CC)[C@@H]1C(=O)N[C@H](C2Cc3ccccc3C2)C(=O)N1[C@@H](C(=O)NC)c1ccc(C)nc1C |
| 1 | 4 | 16 | 1110 | 1 |  | 10.30 |  |  |  |  |  |  |  |  | CC[C@H](C)[C@@H]1C(=O)N[C@H](C2Cc3ccccc3C2)C(=O)N1[C@@H](C(=O)N1CCOCC1)c1cnc(C)cc1C |
| 11 | 1 | 12 | 1810 | 2 | 36 | 10.30 | 20 | 19 | 255 | 47 |  |  |  |  | CCC(CC)[C@@H]1C(=O)N[C@H](C2Cc3ccccc3C2)C(=O)N1[C@@H](C(=O)N(C)C)c1ccc(C)nc1 |
| 9 | 1 | 32 | 2680 | 1 |  | 10.40 |  | 12 | 140 | 17 |  |  |  |  | CC[C@H](C)[C@@H]1C(=O)N[C@H](C2Cc3ccccc3C2)C(=O)N1[C@@H](C(=O)N(C)C)c1cnc(C)cc1C |
| 18 | 1 | 29 |  | 3 |  | 10.50 |  |  |  |  |  |  |  |  | CCC(CC)[C@@H]1C(=O)N[C@H](C2Cc3ccccc3C2)C(=O)N1[C@@H](C(=O)N(C)C)c1ccc(C)nc1C |
| 12 | 5 | 18 | 1380 | 1 | 55 | 10.60 | 23 |  |  |  |  |  |  |  | CCC(CC)[C@@H]1C(=O)N[C@H](C2Cc3ccccc3C2)C(=O)N1[C@@H](C(=O)N1CCOCC1)c1ccc(C)nc1 |
